The test system of the assay is HT29 intrarenal xenograft, nude mice, tumor weight change. The assay is described as follows: NCI In Vivo Anticancer Drug Screen. Data for tumor model HT29;CX-1 Human Adenocarcinoma (MER+) (intrarenal inoculation) in NU/NU BALB/C (nude) mice. The settings on record: endpoint: mean tumor weight change, higher = larger tumour. As for the experimental part: The antitumor activity of compounds was measured in mice bearing transplantable tumors. Survival or tumor size were measured and the results are expressed as the measurement made in the treated group (T) divided by the measurement made in the vehicle treated control group (C). The tumor model used in this assay is HT29;CX-1 Human Adenocarcinoma (MER+) (intrarenal inoculation) in NU/NU BALB/C (nude) mice

[1] abbreviates: dose: 75.0 mg/kg/injection, schedule: Q04DX004 (sc), vehicle: saline with Tween-80.
[2] abbreviates: dose: 150.0 mg/kg/injection, schedule: Q04DX004 (sc), vehicle: saline with Tween-80.
The mark [3] stands for this setting: dose: 300.0 mg/kg/injection, schedule: Q04DX004 (sc), vehicle: saline with Tween-80.
Where [4] appears, read: dose: 600.0 mg/kg/injection, schedule: Q04DX004 (sc), vehicle: saline with Tween-80.
[5] abbreviates: dose: 2400.0 mg/kg/injection, schedule: Q04DX004 (sc), vehicle: saline with Tween-80.

SMILES strings stand for the structures. Inconclusive results are not listed.

This passage reports T/C results from PubChem BioAssay AID208 (DTP/NCI, 2004).

Turning to `O=[N+]([O-])c1nccn1CC(O)CO` (centres undefined), the T/C is, setting by setting: (dose: 300.0 mg/kg/injection, schedule: Q04DX004 (sc), vehicle: saline) 86 % of control; (dose: 1200.0 mg/kg/injection, schedule: Q04DX004 (sc), vehicle: saline) 81 % of control; (dose: 2400.0 mg/kg/injection, schedule: Q04DX004 (sc), vehicle: saline) 112 % of control.
Regarding `NC(=O)CCC(N)C(=O)O` (centres undefined), the T/C by setting is: (dose: 75.0 mg/kg/injection, schedule: Q04DX004 (ip), vehicle: suspension in saline) 101 % of control; (dose: 150.0 mg/kg/injection, schedule: Q04DX004 (ip), vehicle: suspension in saline) 70 % of control; (dose: 600.0 mg/kg/injection, schedule: Q04DX004 (ip), vehicle: suspension in saline) 95 % of control; (dose: 1200.0 mg/kg/injection, schedule: Q04DX004 (ip), vehicle: suspension in saline) 107 % of control.
Turning to `C/C=C/C=C/c1cc2cc3c(c(O)c2c(=O)[nH]1)C1(CC3)C(O)=c2c(=O)c3c(=O)cc(OC)c(=O)c=3c(=O)c2=C1O` (centres undefined), the T/C (dose: 6.0 mg/kg/injection, schedule: Q04DX004 (sc), vehicle: DMSO) was 75 % of control; the T/C (dose: 12.0 mg/kg/injection, schedule: Q04DX004 (sc), vehicle: DMSO) was 77 % of control; the T/C (dose: 24.0 mg/kg/injection, schedule: Q04DX004 (sc), vehicle: DMSO) is 61 % of control; the T/C (dose: 48.0 mg/kg/injection, schedule: Q04DX004 (sc), vehicle: DMSO) is 58 % of control.
Turning to `CCn1cnc2c(=S)nc[nH]c21`, the T/C (dose: 150.0 mg/kg/injection, schedule: Q04DX004 (sc), vehicle: saline) is 175 % of control.
For `c1ccc2c(c1)-c1ccccc1C1NC21` (centres undefined), the T/C under setting [1] was 41 % of control.
Regarding `O=C(O)[C@H](Cc1ccccc1)N1C(=O)c2ccccc2C1=O`, the T/C was 180 % of control (dose: 150.0 mg/kg/injection, schedule: Q04DX004 (ip), vehicle: DMSO) and 97 % of control (dose: 300.0 mg/kg/injection, schedule: Q04DX004 (ip), vehicle: DMSO).
Regarding `Nc1nnc[se]1`, the T/C runs as follows: (dose: 200.0 mg/kg/injection, schedule: Q04DX004 (sc), vehicle: saline with Tween-80) 64 % of control; (dose: 400.0 mg/kg/injection, schedule: Q04DX004 (sc), vehicle: saline with Tween-80) 31 % of control; (dose: 800.0 mg/kg/injection, schedule: Q04DX004 (sc), vehicle: saline with Tween-80) 23 % of control.
With `FC(F)(F)c1nc2nc(Cl)c(Cl)nc2[nH]1`, the T/C was 112 % of control under setting [1], 42 % of control under setting [2] and 71 % of control under setting [3].
With `Cc1cc(N)c2ccccc2[n+]1CCCCCCCCCC[n+]1c(C)cc(N)c2ccccc21`, the T/C was 101 % of control (dose: 0.38 mg/kg/injection, schedule: Q01DX010 (ip), vehicle: dextrose); 101 % of control (dose: 0.75 mg/kg/injection, schedule: Q01DX010 (ip), vehicle: dextrose); 81 % of control (dose: 1.5 mg/kg/injection, schedule: Q01DX010 (ip), vehicle: dextrose).
Take `COC(=O)C[C@](O)(CCC(C)(C)O)C(=O)O[C@@H]1C(OC)=C[C@]23CCCN2CCc2cc4c(cc2[C@H]13)OCO4`: the T/C runs as follows: (dose: 0.31 mg/kg/injection, schedule: Q04DX004 (sc), vehicle: saline) 68 % of control; (dose: 0.63 mg/kg/injection, schedule: Q04DX004 (sc), vehicle: saline) 84 % of control; (dose: 1.25 mg/kg/injection, schedule: Q04DX004 (sc), vehicle: saline) 103 % of control; (dose: 2.5 mg/kg/injection, schedule: Q04DX004 (sc), vehicle: saline) 86 % of control.
`O=C1c2ccccc2C(=O)c2c1cn1c2Cc2ccccc2C1`: the T/C is 908 % of control (dose: 37.5 mg/kg/injection, schedule: Q04DX004 (ip), vehicle: Klucel (hydroxypropylcellulose) (HPC)); 537 % of control (dose: 75.0 mg/kg/injection, schedule: Q04DX004 (ip), vehicle: Klucel (hydroxypropylcellulose) (HPC)); 753 % of control (dose: 150.0 mg/kg/injection, schedule: Q04DX004 (ip), vehicle: Klucel (hydroxypropylcellulose) (HPC)); 188 % of control (dose: 300.0 mg/kg/injection, schedule: Q04DX004 (ip), vehicle: Klucel (hydroxypropylcellulose) (HPC)); 450 % of control (dose: 600.0 mg/kg/injection, schedule: Q04DX004 (ip), vehicle: Klucel (hydroxypropylcellulose) (HPC)).
`COC1C(C)OC(OC2CC(C)(O)Cc3cc4c(c(O)c32)C(=O)c2c(O)cc3c(c2C4=O)OC2OC3(C)C(O)C(N(C)C)C2O)C(OC)C1(C)OC` (centres undefined): the T/C is 74 % of control (dose: 20.0 mg/kg/injection, schedule: Q04DX004 (sc), vehicle: Klucel (hydroxypropylcellulose) (HPC)) and 49 % of control (dose: 40.0 mg/kg/injection, schedule: Q04DX004 (sc), vehicle: Klucel (hydroxypropylcellulose) (HPC)).
As to `O=C(Nc1cc(Cl)ccc1C(=O)O)c1cccc(C[n+]2ccccc2)c1`, the T/C is, setting by setting: (dose: 150.0 mg/kg/injection, schedule: Q04DX004 (ip), vehicle: saline with Tween-80) 100 % of control; (dose: 300.0 mg/kg/injection, schedule: Q04DX004 (ip), vehicle: saline with Tween-80) 123 % of control.
In the case of `CC(=O)OCC(=O)[C@@]12OC(C)(C)O[C@@H]1C[C@H]1[C@@H]3CC(C=O)=C4C=C(OCCCl)CC[C@]4(C)[C@@]3(F)[C@@H](O)C[C@@]12C`, the T/C was 101 % of control (dose: 50.0 mg/kg/injection, schedule: Q04DX004 (sc), vehicle: Klucel (hydroxypropylcellulose) (HPC)) and 23 % of control (dose: 100.0 mg/kg/injection, schedule: Q04DX004 (sc), vehicle: Klucel (hydroxypropylcellulose) (HPC)).
Turning to `CC[C@@]1(O)C(=O)OCc2c1cc1n(c2=O)Cc2cc3cc(O)ccc3nc2-1`, the T/C is 2 % of control (dose: 8.0 mg/kg/injection, schedule: Q04DX004 (sc), vehicle: saline); -74 % of control (dose: 16.0 mg/kg/injection, schedule: Q04DX004 (sc), vehicle: saline); -92 % of control (dose: 32.0 mg/kg/injection, schedule: Q04DX004 (sc), vehicle: saline).
As for `COc1cccc2c1C(=O)c1c(O)c3c(c(O)c1C2=O)C[C@@](O)(/C(C)=N\O)C[C@@H]3OC1CC(N)C(O)C(C)O1` (some centres undefined), the T/C (dose: 12.5 mg/kg/injection, schedule: Q04DX004 (sc), vehicle: saline) was 150 % of control; the T/C (dose: 25.0 mg/kg/injection, schedule: Q04DX004 (sc), vehicle: saline) was 100 % of control; the T/C (dose: 50.0 mg/kg/injection, schedule: Q04DX004 (sc), vehicle: saline) was 103 % of control.
For the compound `CCCCC1CCCCCCc2[nH]c(/C=C3\N=C(c4ccc[nH]4)C=C3OC)cc21` (centres undefined), the T/C is, setting by setting: (dose: 2.0 mg/kg/injection, schedule: Q04DX004 (sc), vehicle: saline with Tween-80) 100 % of control; (dose: 4.0 mg/kg/injection, schedule: Q04DX004 (sc), vehicle: saline with Tween-80) 192 % of control; (dose: 8.0 mg/kg/injection, schedule: Q04DX004 (sc), vehicle: saline with Tween-80) 92 % of control.
In the case of `CNC1C(O)C(OC2C(N)CC(N)C(OC3OC(C(C)O)C(O)C(O)C3N)C2O)OCC1(C)O` (centres undefined), the T/C (dose: 50.0 mg/kg/injection, schedule: Q04DX004 (ip), vehicle: saline) is 102 % of control.
`Nc1nc(-c2ccccc2)c(Br)c(=O)[nH]1`: the T/C under setting [3] is 124 % of control, the T/C under setting [4] was 117 % of control and the T/C under setting [5] was 102 % of control.
Regarding `CC1=C(O)C(=O)[C@@H]2O[C@@H]2C1=O`, the T/C (dose: 37.5 mg/kg/injection, schedule: Q04DX004 (sc), vehicle: saline) was 60 % of control.
For `CCNC(C)(C)C(SSS)c1ccco1` (centres undefined), the T/C reads like this: under setting [1], 121 % of control; under setting [2], 119 % of control; under setting [3], 91 % of control.
`CO[C@H]1C[C@@H]2CC[C@@H](C)[C@@](O)(O2)C(=O)C(=O)N2CCCC[C@H]2C(=O)O[C@H]([C@H](C)C[C@@H]2CC[C@@H](O)[C@H](OC)C2)CC(=O)[C@H](C)C=C(C)[C@@H](O)[C@@H](OC)C(=O)[C@H](C)C[C@H](C)/C=C/C=C/C=C1C`: the T/C by setting is: (dose: 200.0 mg/kg/injection, schedule: Q01DX010 (sc), vehicle: saline with Tween-80) 84 % of control; (dose: 400.0 mg/kg/injection, schedule: Q01DX010 (sc), vehicle: saline with Tween-80) 40 % of control; (dose: 800.0 mg/kg/injection, schedule: Q01DX010 (sc), vehicle: saline with Tween-80) 59 % of control; (dose: 1600.0 mg/kg/injection, schedule: Q01DX010 (sc), vehicle: saline with Tween-80) 25 % of control.
As for `Cn1ccc(=Nc2ccc(NC(=O)c3ccc(N=c4ccn(C)c5ccc([N+](=O)[O-])cc45)cc3[N+](=O)[O-])cc2)cc1`, the T/C under setting [3] is 102 % of control; the T/C under setting [4] was 104 % of control; the T/C (dose: 1200.0 mg/kg/injection, schedule: Q04DX004 (sc), vehicle: saline with Tween-80) is 164 % of control; the T/C under setting [5] was 156 % of control.
